{
  "source": "patent US9951028B2",
  "about": "“Agricultural chemicals” (REDAG CROP PROTECTION LTD, priority 2013, dated 2018)",
  "key": {"[1]": {"test_system": "common chickweed, Stellaria media", "assay": "Herbicidal efficacy screen, potter tower spray, necrosis assessed", "assay_type": "in vivo", "method": "(§1) Compounds 22, 23 and 24 were screened for herbicidal efficacy against target plants: garden cress, Lepidium sativum, common chickweed, Stellaria media, and white mustard […] alba Plants were obtained as seeds and were grown to the 2-4 true leaf stage. Plants were grown under laboratory conditions, individually in seed trays. Each plant (in an approximately 3 cm diameter plug) was then detached from the tray for spraying. The compounds were screened at a range of five concentrations, diluted in acetone and TweenTM. A carrier only control was also conducted. Treatments were applied directly onto the plants, using a potter tower, at a specified application rate. One plant of each species was sprayed using a potter tower. The 3 different types of plants were placed on a 10 cm diameter platform directly beneath the potter sprayer and sprayed simultaneously. The growth of the plants and any Phytotoxicity effects were then assessed at intervals over 21 days, according to EPPO guideline PP1/135. Five replicas were performed for each treatment, for each species. In the tables below C represents a percentage increase in necrosis relative to the control of 0.1-50; B represents a percentage inhibition of 50-80; and A represents a percentage inhibition of 80-100."}, "[2]": {"test_system": "garden cress, Lepidium sativum", "assay": "Herbicidal efficacy screen, potter tower spray, necrosis assessed", "assay_type": "in vivo", "method": "as §1"}, "[3]": {"settings": "50 g/ha, day 4 post application"}, "[4]": {"settings": "50 g/ha, day 5 post application"}, "[5]": {"settings": "50 g/ha, day 7 post application"}, "[6]": {"settings": "50 g/ha, day 10 post application"}, "[7]": {"settings": "100 g/ha, day 1 post application"}, "[8]": {"settings": "100 g/ha, day 2 post application"}, "[9]": {"settings": "100 g/ha, day 3 post application"}, "[10]": {"settings": "100 g/ha, day 4 post application"}, "[11]": {"settings": "100 g/ha, day 5 post application"}, "[12]": {"settings": "100 g/ha, day 7 post application"}, "[13]": {"settings": "100 g/ha, day 10 post application"}, "[14]": {"settings": "200 g/ha, day 1 post application"}, "[15]": {"settings": "200 g/ha, day 2 post application"}, "[16]": {"settings": "200 g/ha, day 3 post application"}, "[17]": {"settings": "200 g/ha, day 4 post application"}, "[18]": {"settings": "200 g/ha, day 5 post application"}, "[19]": {"settings": "200 g/ha, day 7 post application"}, "[20]": {"settings": "200 g/ha, day 10 post application"}},
  "data": [
    {"smiles": "CC(C)N(C)S(=O)(=O)NCc1cc(-n2c(=O)cc(C(F)(F)F)n(C)c2=O)c(F)cc1Cl", "note": "[Compound 23, 1-[4-Chloro-2-fluoro-5-[[(isopropyl(methyl)sulfamoyl)amino]methyl]phenyl]-3-methyl-2,6-dioxo-4-(trifluoromethyl)pyrimidine]", "values": [
      {"measurement": "Average of necrosis", "setting": "[1]; [3]", "result": "C (C represents a percentage increase in necrosis relative to the control of 0.1-50)"},
      {"measurement": "Average of necrosis", "setting": "[1]; [4]", "result": "B (B represents a percentage inhibition of 50-80)"},
      {"measurement": "Average of necrosis", "setting": "[1]; [5]", "result": "B (B represents a percentage inhibition of 50-80)"},
      {"measurement": "Average of necrosis", "setting": "[1]; [6]", "result": "B (B represents a percentage inhibition of 50-80)"},
      {"measurement": "Average of necrosis", "setting": "[1]; [7]", "result": "C (C represents a percentage increase in necrosis relative to the control of 0.1-50)"},
      {"measurement": "Average of necrosis", "setting": "[1]; [8]", "result": "C (C represents a percentage increase in necrosis relative to the control of 0.1-50)"},
      {"measurement": "Average of necrosis", "setting": "[1]; [9]", "result": "C (C represents a percentage increase in necrosis relative to the control of 0.1-50)"},
      {"measurement": "Average of necrosis", "setting": "[1]; [10]", "result": "C (C represents a percentage increase in necrosis relative to the control of 0.1-50)"},
      {"measurement": "Average of necrosis", "setting": "[1]; [11]", "result": "B (B represents a percentage inhibition of 50-80)"},
      {"measurement": "Average of necrosis", "setting": "[1]; [12]", "result": "B (B represents a percentage inhibition of 50-80)"},
      {"measurement": "Average of necrosis", "setting": "[1]; [13]", "result": "A (A represents a percentage inhibition of 80-100)"},
      {"measurement": "Average of necrosis", "setting": "[1]; [14]", "result": "C (C represents a percentage increase in necrosis relative to the control of 0.1-50)"},
      {"measurement": "Average of necrosis", "setting": "[1]; [15]", "result": "C (C represents a percentage increase in necrosis relative to the control of 0.1-50)"},
      {"measurement": "Average of necrosis", "setting": "[1]; [16]", "result": "C (C represents a percentage increase in necrosis relative to the control of 0.1-50)"},
      {"measurement": "Average of necrosis", "setting": "[1]; [17]", "result": "C (C represents a percentage increase in necrosis relative to the control of 0.1-50)"},
      {"measurement": "Average of necrosis", "setting": "[1]; [18]", "result": "B (B represents a percentage inhibition of 50-80)"},
      {"measurement": "Average of necrosis", "setting": "[1]; [19]", "result": "B (B represents a percentage inhibition of 50-80)"},
      {"measurement": "Average of necrosis", "setting": "[1]; [20]", "result": "B (B represents a percentage inhibition of 50-80)"},
      {"measurement": "Average of necrosis", "setting": "[2]; 12.5 g/ha, day 1 post application", "result": "C (C represents a percentage increase in necrosis relative to the control of 0.1-50)"},
      {"measurement": "Average of necrosis", "setting": "[2]; 12.5 g/ha, day 2 post application", "result": "C (C represents a percentage increase in necrosis relative to the control of 0.1-50)"},
      {"measurement": "Average of necrosis", "setting": "[2]; 12.5 g/ha, day 3 post application", "result": "C (C represents a percentage increase in necrosis relative to the control of 0.1-50)"},
      {"measurement": "Average of necrosis", "setting": "[2]; 12.5 g/ha, day 4 post application", "result": "C (C represents a percentage increase in necrosis relative to the control of 0.1-50)"},
      {"measurement": "Average of necrosis", "setting": "[2]; 12.5 g/ha, day 5 post application", "result": "C (C represents a percentage increase in necrosis relative to the control of 0.1-50)"},
      {"measurement": "Average of necrosis", "setting": "[2]; 12.5 g/ha, day 7 post application", "result": "C (C represents a percentage increase in necrosis relative to the control of 0.1-50)"},
      {"measurement": "Average of necrosis", "setting": "[2]; 12.5 g/ha, day 10 post application", "result": "C (C represents a percentage increase in necrosis relative to the control of 0.1-50)"},
      {"measurement": "Average of necrosis", "setting": "[2]; 25 g/ha, day 1 post application", "result": "C (C represents a percentage increase in necrosis relative to the control of 0.1-50)"},
      {"measurement": "Average of necrosis", "setting": "[2]; 25 g/ha, day 2 post application", "result": "C (C represents a percentage increase in necrosis relative to the control of 0.1-50)"},
      {"measurement": "Average of necrosis", "setting": "[2]; 25 g/ha, day 3 post application", "result": "C (C represents a percentage increase in necrosis relative to the control of 0.1-50)"},
      {"measurement": "Average of necrosis", "setting": "[2]; 25 g/ha, day 4 post application", "result": "C (C represents a percentage increase in necrosis relative to the control of 0.1-50)"},
      {"measurement": "Average of necrosis", "setting": "[2]; 25 g/ha, day 5 post application", "result": "C (C represents a percentage increase in necrosis relative to the control of 0.1-50)"},
      {"measurement": "Average of necrosis", "setting": "[2]; 25 g/ha, day 7 post application", "result": "C (C represents a percentage increase in necrosis relative to the control of 0.1-50)"},
      {"measurement": "Average of necrosis", "setting": "[2]; 25 g/ha, day 10 post application", "result": "B (B represents a percentage inhibition of 50-80)"},
      {"measurement": "Average of necrosis", "setting": "[2]; 50 g/ha, day 1 post application", "result": "C (C represents a percentage increase in necrosis relative to the control of 0.1-50)"},
      {"measurement": "Average of necrosis", "setting": "[2]; 50 g/ha, day 2 post application", "result": "C (C represents a percentage increase in necrosis relative to the control of 0.1-50)"},
      {"measurement": "Average of necrosis", "setting": "[2]; 50 g/ha, day 3 post application", "result": "C (C represents a percentage increase in necrosis relative to the control of 0.1-50)"},
      {"measurement": "Average of necrosis", "setting": "[2]; [3]", "result": "C (C represents a percentage increase in necrosis relative to the control of 0.1-50)"},
      {"measurement": "Average of necrosis", "setting": "[2]; [4]", "result": "B (B represents a percentage inhibition of 50-80)"},
      {"measurement": "Average of necrosis", "setting": "[2]; [5]", "result": "B (B represents a percentage inhibition of 50-80)"},
      {"measurement": "Average of necrosis", "setting": "[2]; [6]", "result": "B (B represents a percentage inhibition of 50-80)"},
      {"measurement": "Average of necrosis", "setting": "[2]; [7]", "result": "C (C represents a percentage increase in necrosis relative to the control of 0.1-50)"},
      {"measurement": "Average of necrosis", "setting": "[2]; [8]", "result": "C (C represents a percentage increase in necrosis relative to the control of 0.1-50)"},
      {"measurement": "Average of necrosis", "setting": "[2]; [9]", "result": "C (C represents a percentage increase in necrosis relative to the control of 0.1-50)"},
      {"measurement": "Average of necrosis", "setting": "[2]; [10]", "result": "C (C represents a percentage increase in necrosis relative to the control of 0.1-50)"},
      {"measurement": "Average of necrosis", "setting": "[2]; [11]", "result": "B (B represents a percentage inhibition of 50-80)"},
      {"measurement": "Average of necrosis", "setting": "[2]; [12]", "result": "B (B represents a percentage inhibition of 50-80)"},
      {"measurement": "Average of necrosis", "setting": "[2]; [13]", "result": "B (B represents a percentage inhibition of 50-80)"},
      {"measurement": "Average of necrosis", "setting": "[2]; [14]", "result": "C (C represents a percentage increase in necrosis relative to the control of 0.1-50)"},
      {"measurement": "Average of necrosis", "setting": "[2]; [15]", "result": "B (B represents a percentage inhibition of 50-80)"},
      {"measurement": "Average of necrosis", "setting": "[2]; [16]", "result": "B (B represents a percentage inhibition of 50-80)"},
      {"measurement": "Average of necrosis", "setting": "[2]; [17]", "result": "B (B represents a percentage inhibition of 50-80)"},
      {"measurement": "Average of necrosis", "setting": "[2]; [18]", "result": "B (B represents a percentage inhibition of 50-80)"},
      {"measurement": "Average of necrosis", "setting": "[2]; [19]", "result": "B (B represents a percentage inhibition of 50-80)"},
      {"measurement": "Average of necrosis", "setting": "[2]; [20]", "result": "B (B represents a percentage inhibition of 50-80)"}
    ]}
  ]
}
